According to article PMC12015462, “Prioritization of novel anti-infective stilbene derivatives by combining metabolomic data organization and a stringent 3R-infection model in a knowledge graph” (RSC Advances, 2025):
Read-outs that look alike come from different tables or passages of the source.

Experiments:
Format in all cases: cell-based
Dictyostelium discoideum = test: Infection assay: growth of the host amoeba D. discoideum (fluorescence) in infection; settings: for activity at 0.411523 µM / activity at 1.23457 µM / activity at 3.7037 µM / activity at 11.1111 µM / activity at 33.3333 µM / activity at 100 µM: 72 h; for IC50: read-out: IC50 Dd in infection (μM)
Source text: (§1) Since fractions were not weighed individually, the injection mass was used to calculate an average mass per fraction and thus a nominal mass concentration.

Mycobacterium marinum [1] = test: Anti-biotic assay: M. marinum growth in broth (luminescence); settings: for activity at 0.411523 µM / activity at 1.23457 µM / activity at 3.7037 µM / activity at 11.1111 µM / activity at 33.3333 µM / activity at 100 µM: 72 h
Procedure: as §1
Plating bacteria and compounds or fractions was performed analogously to the infection assay described above. Bacteria growth was monitored with the Agilent BioTek H1 plate reader by recording luminescence at 32 °C.
The prepared plates were sealed and stored at 4 °C overnight. On the day of the experiment, nine 10 cm Petri dishes were infected (as described before) and grouped into three pools.

Mycobacterium marinum [2] = test: Infection assay: intracellular M. marinum growth (luminescence) in D. discoideum; settings: for activity at 0.411523 µM / activity at 1.23457 µM / activity at 3.7037 µM / activity at 11.1111 µM / activity at 33.3333 µM / activity at 100 µM: 72 h; for activity at 0.411523 µM: conc 0.411522634 uM; for activity at 1.23457 µM: conc 1.234567901 uM; for activity at 3.7037 µM: conc 3.703703704 uM; for activity at 11.1111 µM: conc 11.11111111 uM; for activity at 33.3333 µM: conc 33.33333333 uM; for activity at 100 µM: conc 100 uM; for IC50: interpolated between the two concentrations closest to residual growth 0.5, top concentration 100 μM
Source text: as §1

[3] = read-out: mean normalized residual growth, Dd in infection
[4] = read-out: median normalized residual growth, Dd in infection
[5] = read-out: mean (normalised M. marinum growth, Mm in broth)
[6] = read-out: median (normalised M. marinum growth, Mm in broth)
[7] = vehicle control set at 1, read-out: mean normalized residual growth, Mm in infection
[8] = vehicle control set at 1, read-out: median normalized residual growth, Mm in infection

| Structure (SMILES) | activity at 0.411523 µM (Dictyostelium discoideum; [3]) | activity at 1.23457 µM (Dictyostelium discoideum; [3]) | activity at 3.7037 µM (Dictyostelium discoideum; [3]) | activity at 11.1111 µM (Dictyostelium discoideum; [3]) | activity at 33.3333 µM (Dictyostelium discoideum; [3]) | activity at 100 µM (Dictyostelium discoideum; [3]) | activity at 0.411523 µM (Dictyostelium discoideum; [4]) | activity at 1.23457 µM (Dictyostelium discoideum; [4]) | activity at 3.7037 µM (Dictyostelium discoideum; [4]) | activity at 11.1111 µM (Dictyostelium discoideum; [4]) | activity at 33.3333 µM (Dictyostelium discoideum; [4]) | activity at 100 µM (Dictyostelium discoideum; [4]) | IC50 (Dictyostelium discoideum) | activity at 0.411523 µM (Mycobacterium marinum [1]; [5]) | activity at 1.23457 µM (Mycobacterium marinum [1]; [5]) | activity at 3.7037 µM (Mycobacterium marinum [1]; [5]) | activity at 11.1111 µM (Mycobacterium marinum [1]; [5]) | activity at 33.3333 µM (Mycobacterium marinum [1]; [5]) | activity at 100 µM (Mycobacterium marinum [1]; [5]) | activity at 0.411523 µM (Mycobacterium marinum [1]; [6]) | other results |
| --- | --- | --- | --- | --- | --- | --- | --- | --- | --- | --- | --- | --- | --- | --- | --- | --- | --- | --- | --- | --- | --- |
| Oc1ccc(/C=C/c2cc(O)c3c(c2)O[C@@H](c2ccc(O)cc2O)[C@@H]3c2cc(O)cc(O)c2)cc1 (relative stereo) [Compound 1, (+)-Gnetin D] | 161% | 111% | 113% | 81.5% | 58.3% | 47.7% | 94.2% | 88.8% | 85.1% | 80.3% | 86.2% | 82.6% | > 100 µM | 121% | 119% | 118% | 111% | 110% | 102% | 120% | activity at 1.23457 µM (Mycobacterium marinum [1]; [6]): 116%; activity at 3.7037 µM (Mycobacterium marinum [1]; [6]): 117%; activity at 11.1111 µM (Mycobacterium marinum [1]; [6]): 110%; activity at 33.3333 µM (Mycobacterium marinum [1]; [6]): 110%; activity at 100 µM (Mycobacterium marinum [1]; [6]): 102%; activity at 0.411523 µM (Mycobacterium marinum [2]; [7]): 93.5%; activity at 0.411523 µM (Mycobacterium marinum [2]; [8]): 93.7%; activity at 1.23457 µM (Mycobacterium marinum [2]; [7]): 114%; activity at 1.23457 µM (Mycobacterium marinum [2]; [8]): 117%; activity at 3.7037 µM (Mycobacterium marinum [2]; [7]): 153%; activity at 3.7037 µM (Mycobacterium marinum [2]; [8]): 154%; activity at 11.1111 µM (Mycobacterium marinum [2]; [7]): 171%; activity at 11.1111 µM (Mycobacterium marinum [2]; [8]): 172%; activity at 33.3333 µM (Mycobacterium marinum [2]; [7]): 168%; activity at 33.3333 µM (Mycobacterium marinum [2]; [8]): 169%; activity at 100 µM (Mycobacterium marinum [2]; [7]): 86.4%; activity at 100 µM (Mycobacterium marinum [2]; [8]): 83.4%; IC50 (Mycobacterium marinum [2]): > 100 µM |
| Oc1ccc(/C=C/c2cc(O)c3c(c2)O[C@H](c2ccc(O)cc2O)[C@@H]3c2cc(O)cc(O)c2)cc1 (relative stereo) [Compound 2, (+)-Gnetupendin C] | 94.2% | 97.6% | 98.8% | 105% | 101% | 114% | 101% | 91.8% | 86% | 76.8% | 74.6% | 83.1% | > 100 µM | 97.4% | 103% | 113% | 109% | 110% | 109% | 95.6% | activity at 1.23457 µM (Mycobacterium marinum [1]; [6]): 101%; activity at 3.7037 µM (Mycobacterium marinum [1]; [6]): 111%; activity at 11.1111 µM (Mycobacterium marinum [1]; [6]): 108%; activity at 33.3333 µM (Mycobacterium marinum [1]; [6]): 109%; activity at 100 µM (Mycobacterium marinum [1]; [6]): 109%; IC50 (Mycobacterium marinum [1]; read-out: IC50 Mm in broth (μM)): > 100 µM; activity at 0.411523 µM (Mycobacterium marinum [2]; [7]): 112%; activity at 0.411523 µM (Mycobacterium marinum [2]; [8]): 122%; activity at 1.23457 µM (Mycobacterium marinum [2]; [7]): 145%; activity at 1.23457 µM (Mycobacterium marinum [2]; [8]): 143%; activity at 3.7037 µM (Mycobacterium marinum [2]; [7]): 154%; activity at 3.7037 µM (Mycobacterium marinum [2]; [8]): 147%; activity at 11.1111 µM (Mycobacterium marinum [2]; [7]): 167%; activity at 11.1111 µM (Mycobacterium marinum [2]; [8]): 167%; activity at 33.3333 µM (Mycobacterium marinum [2]; [7]): 109%; activity at 33.3333 µM (Mycobacterium marinum [2]; [8]): 105%; activity at 100 µM (Mycobacterium marinum [2]; [7]): 27.8%; activity at 100 µM (Mycobacterium marinum [2]; [8]): 35.5%; IC50 (Mycobacterium marinum [2]): 66.7 µM |
| Oc1cc(O)cc([C@H]2c3c(O)cc(/C=C/c4ccc(O)cc4O)cc3O[C@@H]2c2ccc(O)cc2O)c1 (relative stereo) [Compound 10, (−)-Gnetumontanin A] | 126% | 88.6% | 59.8% | 54.4% | 51.5% | 6.33% | 102% | 97% | 90.5% | 84.7% | 80.4% | 76.2% | > 100 µM | 111% | 103% | 95.3% | 96.3% | 99.7% | 90% | 116% | activity at 1.23457 µM (Mycobacterium marinum [1]; [6]): 103%; activity at 3.7037 µM (Mycobacterium marinum [1]; [6]): 95.2%; activity at 11.1111 µM (Mycobacterium marinum [1]; [6]): 96.3%; activity at 33.3333 µM (Mycobacterium marinum [1]; [6]): 97.6%; activity at 100 µM (Mycobacterium marinum [1]; [6]): 91%; activity at 0.411523 µM (Mycobacterium marinum [2]; [7]): 90.6%; activity at 0.411523 µM (Mycobacterium marinum [2]; [8]): 90.5%; activity at 1.23457 µM (Mycobacterium marinum [2]; [7]): 132%; activity at 1.23457 µM (Mycobacterium marinum [2]; [8]): 135%; activity at 3.7037 µM (Mycobacterium marinum [2]; [7]): 120%; activity at 3.7037 µM (Mycobacterium marinum [2]; [8]): 120%; activity at 11.1111 µM (Mycobacterium marinum [2]; [7]): 145%; activity at 11.1111 µM (Mycobacterium marinum [2]; [8]): 152%; activity at 33.3333 µM (Mycobacterium marinum [2]; [7]): 157%; activity at 33.3333 µM (Mycobacterium marinum [2]; [8]): 160%; activity at 100 µM (Mycobacterium marinum [2]; [7]): 41.3%; activity at 100 µM (Mycobacterium marinum [2]; [8]): 59.1%; IC50 (Mycobacterium marinum [2]): > 100 µM |
